Measured values published in patent US20230220346A1, “BIOLOGICALLY SYNTHESIZED HYDROXYAPATITE FOR BONE REGENERATION AND TISSUE ENGINEERING” (BIOVENTURES, LLC, priority 2019, published 2023).

Columns and labels:
[1] = system: MG-63 and Saos-2 cell lines; assay: Alizarin Red S biomineralization assay: phosphate source comparison, titration, ascorbic acid (FIG. 1A, 1C, 1E-G); type: cell-based, human; conditions: for dose dependence of biomineralization (titration assays): FIG. 1E-G; for biomineralization with the substance as organic phosphate source: substituted for βGP, 2 mM, with ALP, FIG. 1B,C
Method: (§1) Biomineralization assays and Alizarin Red S staining: All human and mouse cell lines and human peripheral blood mononuclear cells (MNCs) were maintained in MEMα/10% FBS with penicillin/streptomycin and glutamine in a 37° C. humidified incubator with 5% CO2. […] The medium was replaced after 4 days. Alizarin Red S staining was performed at room temperature by removing the culture medium, washing the cells twice with 1×PBS (pH 7.4), fixing the cells in 10% neutral buffered formalin (Richard-Allan Scientific, Kalamazoo, Mich., USA) for 30 min, rinsing twice with Milli-Q water, staining with Alizarin Red S for 30 min, and destaining twice in Milli-Q water. A ZEISS inverted fluorescence/brightfield microscope equipped with an Infinity 3 digital camera and software system was used for imaging.

Saos-2 cell line = assay: Alizarin Red S (ARS) biomineralization assay in Saos-2; type: cell-based, human; conditions: for biomineralization (Alizarin Red S staining): MEMα/10% FBS plus the supplement only, no ALP added, 7 days
Method: as §1

MG-63 cell line = assay: Alizarin Red S (ARS) biomineralization assay in MG-63; type: cell-based, human; conditions: MEMα/10% FBS plus the supplement only, no ALP added, 7 days
Method: as §1

[2] = system: human blood mononuclear cells (MNCs); assay: Alizarin Red S biomineralization assay in human blood mononuclear cells; type: cell-based; conditions: MEMα/10% FBS with αGP alone or CIP alone (the other missing), 7 days
Method: as §1
Coating cell culture plate with Collagen Type I, rat tail for mineralization assays: To coat a 48-well plate with Collagen Type I at 5 μg/cm^2, the stock solution was diluted to 25 μg/mL in 17.5 mM of acetic acid and aliquoted […] into each well. After incubating at room temperature for one hour, the Collagen Type I solution was removed. Each well was rinsed with 1×PBS (pH 7.4) and air-dried at room temperature. Human blood MNCs were suspended in the conditioned media and distributed into each well (1×10^5 cell/well) prior to a 7-day incubation. […]

With `[Ca+2]` [Ca^2+, calcium ions] the “dose dependence of biomineralization (titration assays)” value [1] was “depended on the doses”.
`O=P(O)(O)OCC(O)CO` (stereo not drawn) [NSC 9231, glycerophosphoric acid] was tested, and the “biomineralization with the substance as organic phosphate source” value [1] was “did not occur”.
In the case of `O=C1O[C@H]([C@@H](O)CO)C(O)=C1O` [Vit. C, Ascorbic acid], the “need of ascorbic acid for biomineralization” value ([1]; MEMα with or without ascorbic acid, FIG. 1A and FIG. 8) is reported as “unnecessary or even deleterious”, the “biomineralization (Alizarin Red S staining)” value (Saos-2 cell line) is reported as “No mineralization” and the “biomineralization (Alizarin Red S staining)” value (MG-63 cell line) is reported as “No mineralization”.
With `NCCC(O)(P(=O)(O)O)P(=O)(O)O` [pamidronate] the “biomineralization with the substance as organic phosphate source” value [1] was “did not occur”.
`O.O=P([O-])([O-])OCC(O)CO.[Na+].[Na+]` (stereo not drawn) [αGP, Disodium α-glycerophosphate hydrate] was tested, and the “dose dependence of biomineralization (titration assays)” value [1] was “depended on the doses”, the “relative efficiency of phosphoester salts in eliciting biomineralization” value ([1]; compared to βGP and PEP, FIG. 1C) was “most efficient” and the “incubation time until biomineralization occurred at cytoplasmic membrane and cytosol” value (Saos-2 cell line; MEMα/10% FBS with 2 mM αGP) was at most 24 h. For the same compound, the “biomineralization (Alizarin Red S staining)” value [2] was “did not occur”.
For `O=P([O-])([O-])OC(CO)CO.[Na+].[Na+]` [βGP, disodium β-glycerophosphate], the “biomineralization (Alizarin Red S staining)” value (Saos-2 cell line) was “could mineralize” and the “biomineralization (Alizarin Red S staining)” value (MG-63 cell line) was “could not”.
